Tested on: stratum corneum
Text: For these experiments, a Q-switched solid state ruby laser (20 ns pulse duration, capable of generating up to 2 joules per pulse) was used to generate the laser beam, which hit the target material (black polystyrene sheet about 1 mm thick) and generated a single impulse transient. Impulse transients of up to 1000 bar peak stress and 50 ns duration and with a ½ inch beam diameter can be generated with this laser-target system. The large target ensures that the impulse transients generated are plane waves, because the thickness of the coupling medium is much shorter than the diameter of the impulse transient. An articulating arm was used and the laser path was totally covered for safety.
The washer was attached onto the skin with grease. The sample filled the central opening of the washer, which was approximately ¼ inch in diameter. The target material was positioned on top of the washer and irradiated with 1 laser pulse.
The black polystyrene target completely absorbed the laser radiation so that the skin was exposed only to impulse transients, and not laser radiation. […] The skin was monitored for fluorescence of protophyrin IX thirty minutes after exposure to the impulse transients.
All fluorescence measurements were compared to the fluorescence emission of the target site on the stratum corneum before the experiments.

SMILES: NCC(=O)CCC(=O)O [ALA, 5-aminolevulenic acid]
- time for which protophyrin IX fluorescence intensity increased until maximum intensity (5% ALA in PBS, single impulse transient, skin fluorescence): approximately 4 hours
- protophyrin IX fluorescence when compound applied after the impulse transient (ALA applied on the same sites 5 minutes after impulse transients): no fluorescence emission from protophyrin IX was observed
- time post-treatment at which the fluorescence peak at about 640 nm is highest (FIG. 1, single impulse transient): 210 min
- change of skin fluorescence intensity over time without impulse transient (FIG. 2, adjacent control site, ALA applied without any impulse transients): little change in the intensity
- dependence of transdermal transport on peak stress (FIG. 3, single impulse transient at 300, 400 or 600 bar): increases with increasing peak stress

— patent publication US6689094B2, “Compound delivery using impulse transients” (priority 1996, dated 2004)
